Assay results: patent US9585892B2, “Solid forms comprising N-(5-tert-butyl-isoxazol-3-yl)-N′-{4-[7-(2-morpholin-4-yl-ethoxy)imidazo[2,1-b][1,3]benzothiazol-2-yl]phenyl}urea, compositions thereof, and uses therewith” (AMBIT BIOSCIENCES CORPORATION, priority 2007, dated 2017)
Counter-ions that a name gives are not always drawn. Like-named read-outs stand apart in the source and are kept apart here.

Tests used:
Type in all cases: physicochemical
[1] = Stress experiments (temperature or relative humidity, XRPD after stress)
Procedure: Stress Experiments. Solids were stressed under different temperature or relative humidity (RH) environments for a measured time period. Specific RH values were achieved by placing the sample inside sealed chambers containing saturated salt solutions. The salt solutions were selected and prepared following an ASTM standard procedure. Samples were analyzed by XRPD immediately after removal from the stress environment.
(§1) X-ray powder diffraction analyses were performed on an Inel XRG-3000 diffractometer, equipped with a curved position-sensitive detector with a […] of 120°. Real time data was collected using Cu Kα radiation starting at approximately 4 ° 2θ at a resolution of 0.03 ° 2θ. The tube voltage and amperage were set to 40 kV and 30 mA, respectively. […] Samples were prepared for analysis by packing them into thin-walled glass capillaries. Each capillary was mounted onto a goniometer head that is motorized to permit spinning of the capillary during data acquisition. Instrument calibration was performed daily using a silicon reference standard.

[2] = Dynamic vapor sorption/desorption (moisture balance); conditions: for post-moisture balance XRPD (resulting material): after sorption/desorption cycle 5-95-5% RH; for weight loss upon initial equilibration: equilibrium at 5% RH; for weight gain on sorption / water corresponding to the weight gain on sorption: from 5 to 95% RH; for weight loss on desorption: from 95 to 5% RH
Procedure: Data were collected on a VTI SGA-100 moisture balance system. For sorption isotherms, a sorption range of about 5 to about 95% relative humidity (RH) and a desorption range of about 95 to about 5% RH in 10% RH increments were used for analysis. The samples were not dried prior to analysis. Equilibrium criteria used for analysis were less than 0.0100% weight change in 5 minutes with a maximum equilibration time of 3 hours if the weight criterion was not met. Data were not corrected for the initial moisture content of the samples.

[3] = Solubility measurements (solvent aliquot addition, visual inspection)
Procedure: A weighed sample was treated with aliquots of the test solvent at room temperature or elevated temperature. Complete dissolution of the test material was determined by visual inspection. Solubility was estimated based on the total solvent used to provide complete dissolution. The actual solubility may be greater than the value calculated because of the use of solvent aliquots that were too large or due to a slow rate of dissolution. […] If complete dissolution was achieved as a result of only one aliquot addition, the solubility is expressed as “greater than.”

[4] = Mechanical stress studies (compression, grinding, milling; XRPD after stress)
Procedure: Grinding. […] […] The solids were isolated and analyzed.
as §1

[5] = Oven: 40° C., 4 days, listed as A
[6] = 75% RH, ambient temperature, 2 and 4 days

Question: Which results are given for `CC(C)(C)c1cc(NC(=O)Nc2ccc(-c3cn4c(n3)sc3cc(OCCN5CCOCC5)ccc34)cc2)no1` [Form A of the HCl salt of Compound B1, N-(5-tert-butyl-isoxazol-3-yl)-N′-{4-[7-(2-morpholin-4-yl-ethoxy)imidazo[2,1-b][1,3]benzothiazol-2-yl]phenyl}urea]?
Answer: weight gain ([1]; 75% RH, 1 day): 1 day: 4.2% weight gain; weight gain ([1]; 75% RH, 2 days): 2 days: 3.8% weight gain; XRPD Result after stress ([1]; 75% RH, ambient temperature, 4 days): Form D; XRPD Result after stress ([1]; Oven: 40° C., 4 days): mixture of Form A and Form E; XRPD Result after stress [1, 5]: A + E; weight loss [1, 5]: 4 days: 3.0% weight loss; post-moisture balance XRPD (resulting material) [2]: Form D; post-moisture balance XRPD (resulting material) ([2]; listed as A): FORM D; weight loss upon initial equilibration [2]: about 3.9%; weight loss upon initial equilibration ([2]; listed as A): ~3.9% WEIGHT LOSS UPON EQUILIBRIUM; weight gain on sorption [2]: about 16.7%; water corresponding to the weight gain on sorption ([2]; listed as A): CORRESPONDING TO 6.5 MOLES OF WATER.; weight gain on sorption ([2]; listed as A): ~16.7% WEIGHT GAIN FROM 5 TO 95% RH,; weight loss on desorption [2]: about 16.7%; weight loss on desorption ([2]; listed as A): ~16.6% WEIGHT LOSS FROM 95 TO 5% RH.; solubility ([3]; 1,4-dioxane, organic solvent or mixture, thermodynamic from solid, 1,4-Dioxane, Ambient, read-out: Approximate Solubility): < 2000 µg/mL; solubility ([3]; 2-butanone, organic solvent or mixture, thermodynamic from solid, 2-Butanone, Ambient, read-out: Approximate Solubility): < 2000 µg/mL; solubility ([3]; acetone, organic solvent or mixture, thermodynamic from solid, Acetone, Ambient, read-out: Approximate Solubility): < 2000 µg/mL; solubility ([3]; acetonitrile, organic solvent or mixture, thermodynamic from solid, Acetonitrile (ACN), Ambient, read-out: Approximate Solubility): < 2000 µg/mL; solubility ([3]; acetonitrile/water (1:1), 60 °C, aqueous with cosolvent or surfactant or cyclodextrin, thermodynamic from solid, ACN/water (1:1), 60° C., read-out: Approximate Solubility): ≥ 110000 µg/mL; solubility ([3]; dichloromethane, organic solvent or mixture, thermodynamic from solid, Dichloromethane (DCM), Ambient, read-out: Approximate Solubility): < 2000 µg/mL; solubility ([3]; ethanol, organic solvent or mixture, thermodynamic from solid, Ethanol (EtOH), Ambient, read-out: Approximate Solubility): 1000 µg/mL; solubility ([3]; ethanol/water (4:1), 60 °C, organic solvent or mixture, thermodynamic from solid, Ethanol/water (4:1), 60° C., read-out: Approximate Solubility): ≥ 39000 µg/mL; solubility ([3]; ethanol/water (24:1), 60 °C, organic solvent or mixture, thermodynamic from solid, Ethanol/water (24:1), 60° C., read-out: Approximate Solubility): < 2000 µg/mL; solubility ([3]; ethyl acetate, organic solvent or mixture, thermodynamic from solid, Ethyl Acetate (EtOAc), Ambient, read-out: Approximate Solubility): < 2000 µg/mL; solubility ([3]; isopropanol, organic solvent or mixture, thermodynamic from solid, Isopropanol (IPA), Ambient, read-out: Approximate Solubility): < 2000 µg/mL; solubility ([3]; isopropanol/water (24:1), 60 °C, organic solvent or mixture, thermodynamic from solid, Isopropanol/water (24:1), 60° C., read-out: Approximate Solubility): < 2000 µg/mL; solubility ([3]; methanol, organic solvent or mixture, thermodynamic from solid, Methanol (MeOH), Ambient, read-out: Approximate Solubility): 3000 µg/mL; solubility ([3]; nitromethane, organic solvent or mixture, thermodynamic from solid, Nitromethane, Ambient, read-out: Approximate Solubility): < 2000 µg/mL; solubility ([3]; tetrahydrofuran, organic solvent or mixture, thermodynamic from solid, Tetrahydrofuran (THF), Ambient, read-out: Approximate Solubility): < 2000 µg/mL; solubility ([3]; trifluoroethanol, organic solvent or mixture, thermodynamic from solid, Trifluoroethanol (TFE), Ambient, read-out: Approximate Solubility): > 72000 µg/mL; solubility ([3]; trifluorotoluene, organic solvent or mixture, thermodynamic from solid, Trifluorotoluene (TFT), Ambient, read-out: Approximate Solubility): < 2000 µg/mL; solubility ([3]; water, thermodynamic from solid, Water, Ambient, certain samples formed a gel upon addition of water, actual solubility may differ substantially, read-out: Approximate Solubility): 36000 µg/mL

Question: Which results are given for `CC(C)(C)c1cc(NC(=O)Nc2ccc(-c3cn4c(n3)sc3cc(OCCN5CCOCC5)ccc34)cc2)no1` [Form B of the HCl salt of Compound B1, N-(5-tert-butyl-isoxazol-3-yl)-N′-{4-[7-(2-morpholin-4-yl-ethoxy)imidazo[2,1-b][1,3]benzothiazol-2-yl]phenyl}urea]?
Answer: XRPD Result after stress [1, 6]: Form B; weight change [1, 6]: no substantial weight change; weight change ([1]; 75% RH, ambient temperature, 2 and 4 days, listed as B): 2 and 4 days: no weight; XRPD RESULT after mechanical stress ([4]; GRIND WITH MORTAR AND PESTLE, WATER, 1 MIN): B + SMALL PEAK; XRPD RESULT after mechanical stress ([4]; MILLING, 2,2,2-TRIFLUOROETHANOL, 10 MIN): B + LARGE PEAK; post-moisture balance XRPD (resulting material) [2]: Form B; post-moisture balance XRPD (resulting material) ([2]; listed as B): FORM B; weight loss upon initial equilibration [2]: about 0.6%; water corresponding to the mass gain on sorption ([2]; from 5% to 95% RH): about 1.2 molar equivalents of water; weight gain on sorption [2]: about 3.6%; water corresponding to the weight gain on sorption ([2]; listed as B): ~1.2 MOLES OF WATER FROM ~5 TO ~95%; weight gain on sorption ([2]; listed as B): ~3.6% WEIGHT GAIN, CORRESPONDING TO; weight loss on desorption [2]: about 3.6%; weight loss on desorption ([2]; listed as B): RH, ~3.2% WEIGHT LOSS FROM ~95 TO ~5%; APPROXIMATE SOLUBILITY ([3]; 2,2,2-TRIFLUOROETHANOL, 67 ° C.): 53 mg/mL; APPROXIMATE SOLUBILITY ([3]; 2,2,2-TRIFLUOROETHANOL, AMBIENT): 52 mg/mL; APPROXIMATE SOLUBILITY ([3]; 2-BUTANONE (MEK), 62 ° C.): <1 mg/mL; APPROXIMATE SOLUBILITY ([3]; 2-BUTANONE (MEK), AMBIENT): <1 mg/mL; APPROXIMATE SOLUBILITY ([3]; ACETONE, 54 ° C.): <1 mg/mL; APPROXIMATE SOLUBILITY ([3]; ACETONE, AMBIENT): <1 mg/mL; APPROXIMATE SOLUBILITY ([3]; ACETONE:WATER 50:50, AMBIENT): 13 mg/mL; APPROXIMATE SOLUBILITY ([3]; ACETONITRILE, 60 ° C.): <1 mg/mL; APPROXIMATE SOLUBILITY ([3]; ACETONITRILE, AMBIENT): <1 mg/mL; APPROXIMATE SOLUBILITY ([3]; ACETONITRILE:WATER 50:50, AMBIENT): 51 mg/mL; APPROXIMATE SOLUBILITY ([3]; DICHLOROMETHANE, AMBIENT): <1 mg/mL; APPROXIMATE SOLUBILITY ([3]; DIOXANE:WATER 50:50, 62 ° C.): 23 mg/mL; APPROXIMATE SOLUBILITY ([3]; ETHANOL, 60 ° C.): <2 mg/mL; APPROXIMATE SOLUBILITY ([3]; ETHANOL, AMBIENT): <1 mg/mL; APPROXIMATE SOLUBILITY ([3]; ETHANOL:WATER 50:50, AMBIENT): 13 mg/mL; APPROXIMATE SOLUBILITY ([3]; ETHYL ACETATE, AMBIENT): <1 mg/mL; APPROXIMATE SOLUBILITY ([3]; ISOPROPANOL, 63 ° C.): <1 mg/mL; APPROXIMATE SOLUBILITY ([3]; ISOPROPANOL, AMBIENT): <1 mg/mL; APPROXIMATE SOLUBILITY ([3]; ISOPROPANOL:WATER 20:80, 62 ° C.): 54 mg/mL; APPROXIMATE SOLUBILITY ([3]; ISOPROPANOL:WATER 20:80, AMBIENT): 5 mg/mL; APPROXIMATE SOLUBILITY ([3]; METHANOL, 62 ° C.): 2 mg/mL; APPROXIMATE SOLUBILITY ([3]; METHANOL, AMBIENT): 1 mg/mL; APPROXIMATE SOLUBILITY ([3]; NITROMETHANE, 64 ° C.): <1 mg/mL; APPROXIMATE SOLUBILITY ([3]; NITROMETHANE, AMBIENT): <1 mg/mL; APPROXIMATE SOLUBILITY ([3]; P-DIOXANE, 63 ° C.): <1 mg/mL; APPROXIMATE SOLUBILITY ([3]; P-DIOXANE, AMBIENT): <1 mg/mL; APPROXIMATE SOLUBILITY ([3]; P-DIOXANE:WATER 50:50, AMBIENT): 6 mg/mL; APPROXIMATE SOLUBILITY ([3]; TETRAHYDROFURAN, 64 ° C.): <1 mg/mL; APPROXIMATE SOLUBILITY ([3]; TETRAHYDROFURAN, AMBIENT): <1 mg/mL; APPROXIMATE SOLUBILITY ([3]; TETRAHYDROFURAN:WATER 50:50, AMBIENT): 24 mg/mL; APPROXIMATE SOLUBILITY ([3]; TRIFLUOROTOLUENE, AMBIENT): <1 mg/mL; solubility ([3]; water, 68 °C, water, thermodynamic from solid, WATER, 68 ° C., read-out: APPROXIMATE SOLUBILITY): < 3000 µg/mL; solubility ([3]; water, thermodynamic from solid, WATER, AMBIENT, read-out: APPROXIMATE SOLUBILITY): ≥ 1000 µg/mL
